Experiments:
[1] = system: chronic mild stress-induced depression model mice; assay: Light-dark test, suppressive effects of anxiety symptoms accompanying mild stress loads; type: in vivo; settings: normal control 110.74±5.29, stress-loaded control 74.72±4.09
Description: (§1) Female ddY mice of seven weeks age (n=8 to 12) were subjected to the following procedures: (A) The mice were subjected to forced swimming for 15 minutes, and then to normal breeding for two days. (B) The mice were subjected to breeding in an inclined cage for two days, and then to normal breeding for one day. (C) The mice were subjected to breeding for one day in a cage of which floor mat was made wet and then to normal breeding for one day. (D) The mice were subjected to breeding for one day with a cage rotating at a rate of 180 rotations/minute, and then to normal breeding for one day. Further, after one cycle of (A) to (D) was carried out, (B) to (D) were repeated for two cycles. […]
The compounds of the present invention were administered as a test drug to the chronic mild stress-induced depression model mice of Test Example 3(1) mentioned above, and the model mice were then subjected to light-dark test to evaluate suppressive effects of anxiety symptoms. Specifically, a wooden rectangular apparatus composed of a light chamber and a dark chamber having a height of 50 cm, a length of 50 cm, a width of 25 cm was used, a mouse was placed in a dark chamber and allowed to freely search, and then the number of times invading into a light chamber, and the time staying in the light chamber were recorded for 5 minutes. […]

MAP kinase (ERK1/2) = assay: Activation (phosphorylation) of MAP kinase under mild stress loads, hippocampus of chronic mild stress-induced depression model mice; type: in vivo; settings: normal control 1.26±0.11, stress-loaded control 0.56±0.04
Description: As to the compounds of the present invention, the activation level of the MAP kinase (ERK1/2) was measured using chronic mild stress-induced depression model mice in the following manner. • (1) Preparation of Chronic Mild Stress-Induced Depression Model Mice and Administration of Test Drug
as §1, with “cycles. As such, stress was applied over three weeks in total to prepare chronic mild stress-induced depression model mice.” for “cycles.”
Each of the MAP kinase (MAPK) and the phosphorylated MAP kinase (pMAPK) was subjected to immunoblot analysis, and 2 μg or 5 μg each of tissue-extracted proteins was subjected to electrophoresis. […] The staining intensity of each band was quantified, and a ratio of pMAPK to MAPK was obtained (n=4 to 7). […]

[2] = system: chronic mild stress-induced depression model mice; assay: Tail suspension test, suppressive effects of depression symptoms accompanying mild stress loads; type: in vivo; settings: normal control 73.16±9.20, stress-loaded control 157.01±11.97
Description: as §1, with “cycles. As such, stress was applied over three weeks in total to prepare chronic mild stress-induced depression model mice.” for “cycles.”
The compounds of the present invention were administered as a test drug to the chronic mild stress-induced depression model mice of Test Example 3(1) mentioned above, and the model mice were then subjected to tail suspension test to evaluate suppressive effects of depression symptoms. […] The observations were made for 6 minutes, and the length of the immobility time, serving as an index of depression symptoms, was measured. […]

[3] = system: transcription factor CREB; assay: Activation (phosphorylation) of CREB under mild stress loads, chronic mild stress-induced depression model mice; type: in vivo; settings: normal control 0.95±0.09, stress-loaded control 0.50±0.07
[4] = system: rats with paclitaxel-induced peripheral nerve disorder; assay: Rat peripheral nerve disorder induced by paclitaxel, von Frey test; type: in vivo; settings: ip, test drug intraperitoneally, single dose, higher of values 1 and 5 hours after administration, mechanical stimulus of right hind limb, normal threshold 15, read-out: Recovery Rate of 50% Reaction Threshold Value
Description: The effects of the compounds of the present invention were evaluated for a peripheral nerve disorder which is a side effect induced by the administration of an anti-cancer agent paclitaxel, such as hyperesthesia including allodynia induced by mechanical stimuli, which is a severe pain induced by such tactile stimuli which usually cause no pains. The compound of the present invention was intraperitoneally administered to rats as a test drug to conduct a von Frey test.
Male SD rats of six weeks age (six rats per group) were used as experimental animals, and paclitaxel (2 mg/kg) was intraperitoneally administered every other day for four times in total to prepare rats with paclitaxel-induced peripheral nerve disorder. During the period of 18 to 25 days or during the period of 20 to 27 days after the initiation of paclitaxel administration, the test drug was intraperitoneally administered in a single dose of […], and the following von Frey test was conducted.
The rats of the above (1) were placed in a transparent acrylic cage with a wire-meshed floor and habituated for about three minutes, and the 50% reaction threshold values to the mechanical stimulus of right hind limb were measured before administration of the test drug and after 1 and 5 hours from the initiation of the administration.
The measurement was conducted using von Frey filaments (manufactured by North Coast Medical Inc.) in accordance with the methods of Chaplan, et al. (Journal of Neuroscience Methods, 53(1), 55-63, 1994) and Dixon, et al. (Annual Review of Pharmacology and Toxicology, 20, 441-462, 1980). […] The case where the rat escaped at the instance of removing the filament was also called positive. When the positive reaction was found, stimulus was applied similarly with a filament of one rank weaker, and in the absence of the reaction, stimulus was similarly applied with a filament of one rank stronger, and a point where the reaction changed from negative to positive or from positive to negative was called the first two reactions. Subsequently, stimuli were applied for continuously four times by the same up-down method. A 50% reaction threshold value to the mechanical stimulus was measured using the reaction to the six stimuli in total and then (mean value)±(standard error) for each group was calculated. Incidentally, when stimulus reached to a load of 15.0 g without positive reaction, or when positive reaction continued to a load of 0.4 g, 15.0 g or 0.25 g was adopted as each of 50% reaction threshold values. With regard to the higher 50% reaction threshold value between the 50% threshold values after 1 hour and 5 hours from administration of a test drug, a recovery rate (%) of the 50% reaction threshold value was calculated by the following expression in which 15 was taken as a normal threshold value.
Recovery rate (%) of 50% reaction threshold value=[(50% reaction threshold value after 1 hour or 5 hours from administration of test drug)−(50% reaction threshold value before administration of test drug)]/[(Normal threshold value)−(50% reaction threshold value before administration of test drug)]×100

[5] = 500 μg/kg orally once every day for three weeks
[6] = 1,000 μg/kg orally once every day for three weeks

SMILES	staying time in the light chamber ([1]; 5 minutes, 500 μg/kg) [s]	ratio of pMAPK to MAPK (MAP kinase (ERK1/2); [5])	immobility time ([2]; 6 minutes, 500 μg/kg) [s]	ratio of pCREB to CREB [3, 5]	change in vivo at 0.3 mg/kg [4] [%]	melting point [°C]	staying time in the light chamber ([1]; 5 minutes, 1,000 μg/kg) [s]	ratio of pMAPK to MAPK (MAP kinase (ERK1/2); [6])	immobility time ([2]; 6 minutes, 1,000 μg/kg) [s]	ratio of pCREB to CREB [3, 6]
CCCCCCC/C=C/C(=O)N1CCC(N(C)C)CC1 [Compound 12, 1-((E)-2-decenoyl)-4-dimethylaminopiperidine]	108.70 ± 12.06	1.09±0.04	69.26 ± 16.41	1.08±0.14	49.7	–	–	–	–	–
CCCCCCC/C=C/C(=O)N1CCC(C(=O)O)CC1 [Compound 10, 1-((E)-2-Decenoyl)piperidine-4-carboxylic acid]	–	–	–	–	44.6	88 to 89	107.05 ± 8.29	1.00±0.04	96.03 ± 25.24	0.94±0.10

— patent publication US9428477B2, “Trans-2-decenoic acid derivative and drug containing same” (NIPPON ZOKI PHARMACEUTICAL CO., LTD., priority 2012, dated 2016)
